Results: US4843161A, “Platinum-intercalative complexes for the treatment of cancer” (Massachusetts Institute of Technology, priority 1984, dated 1989)

Assays:
L1210/0 = test: antitumor activity in mice implanted intraperitoneally with L1210 (Table II); assay type: in vivo; set-up: Mean: unit not given beside the values; details: d 1, 5, 9, 13
Experimental: The optimal dose is 15 mg/kg giving a %ILS of 51% versus control mice implanted with L1210 but not treated with the drug.

L1210/PDD = test: antitumor activity in mice implanted with a tumor cell line resistant to cisDDP (Table III); assay type: in vivo; details: q4d × 4

`N.N.[Cl][Pt][Cl]` [CisDDP, cis-diamminedichloroplatinum (II)] was tested, and the ILS (L1210/0; first L1210/0 group, dose 3) was 34%, the Mean (L1210/0; first L1210/0 group, dose 3) was 11.9 and the ILS (L1210/0; second L1210/0 group, dose 2.0) was 26%. For the same compound, the Mean (L1210/0; second L1210/0 group, dose 2.0) was 11.6, the ILS (L1210/0; second L1210/0 group, dose 3.0) was 51% and the Mean (L1210/0; second L1210/0 group, dose 3.0) was 13.9. For the same compound, the ILS (L1210/0; second L1210/0 group, dose 4.5) was 113%, the Mean (L1210/0; second L1210/0 group, dose 4.5) was 19.6 and the ILS (L1210/PDD; dose 2.0) was 0%. It also gave a Mean (L1210/PDD; dose 2.0) of 11.0, an ILS (L1210/PDD; dose 3.0) of 0% and a Mean (L1210/PDD; dose 3.0) of 10.8. The ILS (L1210/PDD; dose 4.5) was 0% and the Mean (L1210/PDD; dose 4.5) was 11.0.
